Experimental data from ChEMBL document CHEMBL1687764, “Contribution of BlaA and BlaB beta-lactamases to antibiotic susceptibility of Yersinia enterocolitica biovar 1B” (2010).
In brackets after ≈: the same amount, converted by molar mass.

Columns and labels:
Type in all cases: functional
Yersinia enterocolitica [1] = assay: Antimicrobial activity against Yersinia enterocolitica Biovar 1B 8081 after 20 hrs by Etest; conditions: Biovar 1B 8081, 20 h
Yersinia enterocolitica [2] = assay: Antimicrobial activity against beta-lactamase A and B-deficient Yersinia enterocolitica GY5718 after 20 hrs by Etest; conditions: GY5718, 20 h
Yersinia enterocolitica [3] = assay: Antimicrobial activity against beta-lactamase A-deficient Yersinia enterocolitica GY5717 after 20 hrs by Etest; conditions: GY5717, 20 h
Yersinia enterocolitica [4] = assay: Antimicrobial activity against beta-lactamase B-deficient Yersinia enterocolitica GY5542 after 20 hrs by Etest; conditions: GY5542, 20 h

Row | Structure (SMILES) | MIC (Yersinia enterocolitica [1]) | MIC (Yersinia enterocolitica [2]) | MIC (Yersinia enterocolitica [3]) | MIC (Yersinia enterocolitica [4])
1 | CO/N=C(\C(=O)N[C@@H]1C(=O)N2C(C(=O)O)=C(COC(N)=O)CS[C@H]12)c1ccco1 [CEFUROXIME] | 0.75 µg/mL (≈ 1.77 µM) | 0.5 µg/mL (≈ 1.18 µM) | 0.5 µg/mL (≈ 1.18 µM) | 0.75 µg/mL (≈ 1.77 µM)
2 | CO/N=C(\C(=O)N[C@@H]1C(=O)N2C(C(=O)O)=C(COC(C)=O)CS[C@H]12)c1csc(N)n1 [CEFOTAXIME] | 0.023 µg/mL (≈ 0.0505 µM) | 0.012 µg/mL (≈ 0.0263 µM) | 0.023 µg/mL (≈ 0.0505 µM) | 0.016 µg/mL (≈ 0.0351 µM)
3 | CCN1CCN(C(=O)N[C@@H](C(=O)N[C@@H]2C(=O)N3[C@@H]2SC(C)(C)[C@@H]3C(=O)O)c2ccccc2)C(=O)C1=O [PIPERACILLIN] | 0.75 µg/mL (≈ 1.45 µM) | 0.094 µg/mL (≈ 0.182 µM) | 0.19 µg/mL (≈ 0.367 µM) | 0.75 µg/mL (≈ 1.45 µM)
4 | CC1(C)S[C@@H]2[C@H](NC(=O)Cc3ccccc3)C(=O)N2[C@H]1C(=O)O [PENICILLIN G] | 24 µg/mL (≈ 71.8 µM) | 1 µg/mL (≈ 2.99 µM) | 4 µg/mL (≈ 12 µM) | 24 µg/mL (≈ 71.8 µM)
5 | CC1(C)S[C@@H]2[C@H](NC(=O)[C@H](N)c3ccc(O)cc3)C(=O)N2[C@H]1C(=O)O [AMOXICILLIN] | 24 µg/mL (≈ 65.7 µM) | 0.38 µg/mL (≈ 1.04 µM) | 1.5 µg/mL (≈ 4.1 µM) | 24 µg/mL (≈ 65.7 µM)

The remaining molecules from weak to strong by MIC (Yersinia enterocolitica [1]), led by results:

Row | MIC (Yersinia enterocolitica [1]) | MIC (Yersinia enterocolitica [2]) | MIC (Yersinia enterocolitica [3]) | MIC (Yersinia enterocolitica [4]) | Structure (SMILES)
6 | 4 µg/mL (≈ 11.4 µM) | 0.19 µg/mL (≈ 0.544 µM) | 0.5 µg/mL (≈ 1.43 µM) | 4 µg/mL (≈ 11.4 µM) | CC1(C)S[C@@H]2[C@H](NC(=O)[C@H](N)c3ccccc3)C(=O)N2[C@H]1C(=O)O [AMPICILLIN]
7 | 0.25 µg/mL (≈ 0.835 µM) | 0.25 µg/mL (≈ 0.835 µM) | 0.25 µg/mL (≈ 0.835 µM) | 0.25 µg/mL (≈ 0.835 µM) | C[C@@H](O)[C@H]1C(=O)N2C(C(=O)O)=C(SCCNC=N)C[C@H]12 [IMIPENEM ANHYDROUS]
8 | 0.023 µg/mL (≈ 0.0415 µM) | 0.012 µg/mL (≈ 0.0216 µM) | 0.016 µg/mL (≈ 0.0289 µM) | 0.016 µg/mL (≈ 0.0289 µM) | CO/N=C(\C(=O)N[C@@H]1C(=O)N2C(C(=O)O)=C(CSc3nc(=O)c(O)nn3C)CS[C@H]12)c1csc(N)n1 [CEFTRIAXONE]
